Experimental data as given in patent US10363284B2, “β-hairpin peptidomimetics” (POLYPHOR AG, priority 2012, dated 2019).
Positions of bridges follow the written chain, without caps; N, C: chain ends. Non-standard residues stand in square brackets, D forms with d. Residues, ends and D or L forms follow the SMILES beside them. dLys(iPr) = CC(C)NCCCC[C@@H](N)C(=O)O; Lys(iPr) = CC(C)NCCCC[C@H](N)C(=O)O; Orn(iPr) = CC(C)NCCC[C@H](N)C(=O)O; Ac3c = NC1(C(=O)O)CC1

Assay: Drug loading calculations via maintenance dose rate
Settings: CLiv-mouse scaled by 0.127 (GFR human/mouse)
Protocol: The drug load for an implant comprising a peptide of the invention was calculated following the basic principles in pharmacokinetics (see also J. Gabrielsson, D. Weiner, “Pharmacokinetics and Pharmaco-dynamics Data Analysis: Concepts and Applications”, 4th edition, Swedish Pharmaceutical Press, Stockholm, Sweden, 2006) whereby the maintenance dose rate (rate of infusion, Rin) can be defined as the rate at which a drug is to be administered to reach a steady state of a certain dose in the plasma. The maintenance dose rate can be expressed using the correlation Rin [g/(h*kg)]=CLiv, [L/(h*kg)]×Css,eff [g/L], wherein CLiv, is the clearance (i.v.—admin.) and Css,eff the effective concentration of the drug in the plasma at steady state considering an efficacy margin A: Css,eff[g/L]=A×(IC50/fu)×MW [(Mol/L)*(g/Mol)]. Therefore, the total amount of a drug loaded into an implant providing for a constant effective concentration of that drug in the plasma for a certain period of time in a subject of a certain body weight can be calculated by applying the following correlation: Drugload [g/subject]=Rin [g/(h*kg)]×duration [h]×BW [kg/subject].
Further pre-conditions are an efficacy margin of A=3, a study duration of 672 h (28 days) and a body weight of a human subject of 70 kg. […]

Structure (SMILES) | CLiv, human (allometric scaled) [mL/h/kg]
CC(C)NCCCC[C@@H]1NC(=O)[C@H](CCC(N)=O)NC(=O)[C@H](Cc2ccc(O)cc2)NC(=O)[C@@H]2CSSC[C@H](NC(=O)[C@H](Cc3ccc(O)cc3)NC(=O)[C@H](Cc3c[nH]cn3)NC(=O)[C@H](Cc3ccc(O)cc3)NC(=O)[C@@H]3CCCN3C(=O)[C@@H](CCCCNC(C)C)NC1=O)C(=O)N[C@@H](CO)C(=O)N[C@@H](C)C(=O)N1CCC[C@@H]1C(=O)N[C@@H](CCCNC(C)C)C(=O)N[C@@H](CCCNC(=N)N)C(=O)N[C@@H](Cc1ccc(O)cc1)C(=O)N2 [Ex. 1, cyclo(-Tyr^1-His^2-Tyr^3-Cys^4-Ser^5-Ala^6-^DPro^7-Orn(iPr)^8-Arg^9-Tyr^10-Cys^11-Tyr^12-Gln^13-Lys(iPr)^14-^DLys(iPr)^15-Pro^16-), disulfide bond between Cys^4 and Cys^11] (cyclo(A[dP][Orn(iPr)]RYCYQ[Lys(iPr)][dLys(iPr)]PYHYCS); disulfide 6-15) | 125
CC(C)NCCCC[C@@H]1NC(=O)[C@H](CCC(N)=O)NC(=O)[C@H](Cc2ccc(O)cc2)NC(=O)[C@@H]2CSSC[C@H](NC(=O)[C@H](Cc3ccc(O)cc3)NC(=O)[C@H](Cc3c[nH]cn3)NC(=O)[C@H](Cc3ccc(O)cc3)NC(=O)[C@@H]3CCCN3C(=O)[C@H]3CCCN3C1=O)C(=O)N[C@@H](CO)C(=O)NC1(CC1)C(=O)N1CCC[C@@H]1C(=O)N[C@@H](CCCNC(C)C)C(=O)N[C@@H](CCCNC(=N)N)C(=O)N[C@@H](Cc1ccc(O)cc1)C(=O)N2 [Ex. 2, cyclo(-Tyr^1-His^2-Tyr^3-Cys^4-Ser^5-Acc^6-^DPro^7-Orn(iPr)^8-Arg^9-Tyr^10-Cys^11-Tyr^12-Gln^13-Lys(iPr)^14-^DPro^15-Pro^16-), disulfide bond between Cys^4 and Cys^11] (cyclo(YHYCS[Ac3c][dP][Orn(iPr)]RYCYQ[Lys(iPr)][dP]P); disulfide 4-11) | 87
